These results are taken from article PMC7352223, “Mapping of CaM, S100A1 and PIP2-Binding Epitopes in the Intracellular N- and C-Termini of TRPM4” (International Journal of Molecular Sciences, 2020).

Residues, ends and D or L forms follow the SMILES beside them.

This test concerns the target T1, calmodulin (CaM) (Homo sapiens, UniProt P0DP23).
T1 construct: made in house
In words: Steady-state fluorescence anisotropy (FA) binding assay, peptide titrated with CaM. The settings on record: carboxyfluorescein-labelled peptide titrated with CaM, 25 mM Tris-HCl pH 7.5, 250 mM NaCl, 200 µM CaCl2, 25 °C, value (SD), anisotropy measured six times per concentration, read-out: KD of peptide/CaM complex, CaM/Ca2+ KD (SD). As for the experimental part:
First, we studied whether M4nt_WT and M4ct_WT are able to bind CaM and S100A1 at all. The carboxyfluorescein-labelled M4nt_WT and M4ct_WT peptides were titrated with increasing amounts of CaM or S100A1, and FA was measured for each point of titration. The FA increased due to a slower rotational diffusion of the formed complexes, and the fraction bound (Fb) of M4nt_WT and M4ct_WT could be calculated (Figure 2A, Figure 3A, Figure 4A, Figure 5A). Since the specific interactions of M4nt_WT and M4ct_WT with CaM/S100A1 were calcium-dependent, all samples were measured in the presence of 200-μM CaCl2. The fluorescence lifetimes τi of all peptides and their complexes (and all the following characterised peptides/complexes) were constant during all the experiments, with the values close to 3 ns. […] Overall, the FA results indicated the high affinity of M4nt_WT and M4ct_WT peptides to CaM and S100A1. Both M4nt_WT and M4ct_WT peptides thus seemed to represent potential binding epitopes on TRPM4.
The experiments were performed on a K2 spectrofluorometer (ISS, Inc., Champaign, IL, USA) at 25 °C in a cuvette with a 2-mm path length. […] Fluorescence was excited at 490 nm, and polarised emission components III and I⊥, required for the construction of the emission anisotropy, were acquired and averaged quasi-simultaneously at 525 nm by repetitive switching of the emission polariser. […] The anisotropy values r were calculated from the fluorescence intensities in the parallel (III) and perpendicular (I⊥) directions according to the relationship r = (III − GI⊥)/(III + 2GI⊥), where G is a factor correcting for different transmittance of the detection channel for the two measured polarisations (III and I⊥). The G factor was determined in a separate experiment. The measurements were repeated six times for each ligand concentration; the mean anisotropy value was calculated and used for further analysis. […] The Q was evaluated for every binding experiment from the ratio of the fluorescence lifetimes of the bound to the free M4nt, M4ct or PIP2: Q = τbound/τfree. […]
(In general: Polarisation of emitted light reports the rotation of a fluorescent probe.)
Consider `CC(C)C[C@H](NC(=O)[C@@H]1CCCN1C(=O)[C@H](CS)NC(=O)[C@H](CCCNC(=N)N)NC(=O)[C@H](CCCNC(=N)N)NC(=O)[C@H](CC(C)C)NC(=O)[C@H](CC(C)C)NC(=O)[C@H](CC(C)C)NC(=O)[C@H](C)NC(=O)[C@H](C)NC(=O)[C@H](C)NC(=O)[C@H](CCCNC(=N)N)NC(=O)[C@@H](NC(=O)[C@H](CCC(=O)O)NC(=O)[C@H](CO)NC(=O)[C@H](CO)NC(=O)[C@H](CCCNC(=N)N)NC(=O)[C@H](Cc1ccc(O)cc1)NC(=O)[C@H](CS)NC(=O)[C@H](CCC(=O)O)NC(=O)CNC(=O)[C@@H](N)Cc1ccccc1)C(C)C)C(=O)O` [M4nt_R640A] (H-FGECYRSSEVRAAALLLRRCPL-OH), for which the Kd is 17 µM.

Regarding `CC(C)C[C@H](NC(=O)[C@@H]1CCCN1C(=O)[C@H](CS)NC(=O)[C@H](CCCNC(=N)N)NC(=O)[C@H](CCCNC(=N)N)NC(=O)[C@H](CC(C)C)NC(=O)[C@H](CC(C)C)NC(=O)[C@H](CC(C)C)NC(=O)[C@H](CCCNC(=N)N)NC(=O)[C@H](C)NC(=O)[C@H](C)NC(=O)[C@H](CCCNC(=N)N)NC(=O)[C@@H](NC(=O)[C@H](CCC(=O)O)NC(=O)[C@H](CO)NC(=O)[C@H](CO)NC(=O)[C@H](C)NC(=O)[C@H](Cc1ccc(O)cc1)NC(=O)[C@H](CS)NC(=O)[C@H](CCC(=O)O)NC(=O)CNC(=O)[C@@H](N)Cc1ccccc1)C(C)C)C(=O)O` [M4nt_R632A] (H-FGECYASSEVRAARLLLRRCPL-OH), the Kd was determined as 27.2 µM.

For `CC(C)C[C@H](NC(=O)[C@@H]1CCCN1C(=O)[C@H](CS)NC(=O)[C@H](C)NC(=O)[C@H](C)NC(=O)[C@H](CC(C)C)NC(=O)[C@H](CC(C)C)NC(=O)[C@H](CC(C)C)NC(=O)[C@H](C)NC(=O)[C@H](C)NC(=O)[C@H](C)NC(=O)[C@H](CCCNC(=N)N)NC(=O)[C@@H](NC(=O)[C@H](CCC(=O)O)NC(=O)[C@H](CO)NC(=O)[C@H](CO)NC(=O)[C@H](CCCNC(=N)N)NC(=O)[C@H](Cc1ccc(O)cc1)NC(=O)[C@H](CS)NC(=O)[C@H](CCC(=O)O)NC(=O)CNC(=O)[C@@H](N)Cc1ccccc1)C(C)C)C(=O)O` [M4nt_R640A/R644A/R645A] (H-FGECYRSSEVRAAALLLAACPL-OH), the Kd turned out to be 80 µM.
